Patent publication US20110021541A1, “INHIBITORS OF HUMAN PHOSPHATIDYL-INOSITOL 3-KINASE DELTA” (priority 2007, published 2011)

target: T1, PI3Kδ (Homo sapiens, UniProt O00329); experiment: PI3Kδ biochemical assay (HTS and selectivity assay protocol, [32P]ATP / PIP2 liposomes); conditions: Table 1, in vitro activity data for selected compounds; read-out: In Vitro I-50
T1 construct: FLAG; His tag (vector pFastbac HTb); made in house; host or cells: Sf21 insect cells (baculovirus, BAC-TO-BAC HT)
Procedure: The 3× substrate for the HTS contained 0.6 mM Na2ATP, 0.10 mCi/mL γ-[^32P]ATP (NEN, Pittsburgh, Pa.), 6 μM PIP2/PS liposomes (Avanti Polar Lipids, Inc., […].), in 20 mM HEPES, pH 7.4.
Subsequent selectivity assays were done similarly using the same 3× substrate stocks except they contained 0.05 mCi/mL γ[^32P]ATP and 3 mM PIP2. Subsequent selectivity assays also used the same 3× enzyme stocks, except they now contained 3 nM of any given PI3K isoform.
For all selectivity assays, the test compounds were weighed out and dissolved into 10-50 mM stocks in 100% DMSO (depending on their respective solubilities) and stored at −20° C. Compounds were thawed (to room temperature or 37° C.), diluted to 300 μM in water from which a 3-fold dilution series into water was done. From these dilutions, 20 μL was added into the assay wells alongside water blanks used for the enzyme (positive) control and the no enzyme (background) control.

T1 sequence (O00329 whole entry): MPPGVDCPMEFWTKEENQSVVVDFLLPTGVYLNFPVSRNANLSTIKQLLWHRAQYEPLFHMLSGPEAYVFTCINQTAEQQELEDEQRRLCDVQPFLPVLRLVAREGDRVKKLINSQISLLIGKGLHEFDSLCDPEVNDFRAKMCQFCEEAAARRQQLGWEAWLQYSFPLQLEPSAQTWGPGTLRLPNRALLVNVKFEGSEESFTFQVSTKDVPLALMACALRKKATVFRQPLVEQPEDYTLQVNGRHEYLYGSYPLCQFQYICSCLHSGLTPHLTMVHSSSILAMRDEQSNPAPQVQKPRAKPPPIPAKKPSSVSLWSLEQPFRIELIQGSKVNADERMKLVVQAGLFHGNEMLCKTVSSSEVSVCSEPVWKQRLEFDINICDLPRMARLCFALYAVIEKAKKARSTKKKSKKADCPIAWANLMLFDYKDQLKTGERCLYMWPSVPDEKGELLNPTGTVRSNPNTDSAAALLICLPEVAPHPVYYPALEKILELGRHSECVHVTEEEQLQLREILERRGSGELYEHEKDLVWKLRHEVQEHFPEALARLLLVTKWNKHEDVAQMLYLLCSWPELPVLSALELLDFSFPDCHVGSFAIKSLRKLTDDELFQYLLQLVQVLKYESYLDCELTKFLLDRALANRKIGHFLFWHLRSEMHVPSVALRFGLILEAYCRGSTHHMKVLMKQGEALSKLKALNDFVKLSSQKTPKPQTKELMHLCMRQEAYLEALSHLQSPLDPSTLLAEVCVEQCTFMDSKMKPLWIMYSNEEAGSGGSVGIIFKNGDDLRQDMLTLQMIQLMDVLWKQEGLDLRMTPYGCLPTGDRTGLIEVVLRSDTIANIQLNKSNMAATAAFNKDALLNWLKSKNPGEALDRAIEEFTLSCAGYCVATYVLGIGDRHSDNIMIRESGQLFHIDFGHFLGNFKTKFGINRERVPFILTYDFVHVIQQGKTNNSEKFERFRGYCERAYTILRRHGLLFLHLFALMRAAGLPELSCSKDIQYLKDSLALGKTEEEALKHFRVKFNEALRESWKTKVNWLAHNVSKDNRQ
T1 sequence (P27986 whole entry partner): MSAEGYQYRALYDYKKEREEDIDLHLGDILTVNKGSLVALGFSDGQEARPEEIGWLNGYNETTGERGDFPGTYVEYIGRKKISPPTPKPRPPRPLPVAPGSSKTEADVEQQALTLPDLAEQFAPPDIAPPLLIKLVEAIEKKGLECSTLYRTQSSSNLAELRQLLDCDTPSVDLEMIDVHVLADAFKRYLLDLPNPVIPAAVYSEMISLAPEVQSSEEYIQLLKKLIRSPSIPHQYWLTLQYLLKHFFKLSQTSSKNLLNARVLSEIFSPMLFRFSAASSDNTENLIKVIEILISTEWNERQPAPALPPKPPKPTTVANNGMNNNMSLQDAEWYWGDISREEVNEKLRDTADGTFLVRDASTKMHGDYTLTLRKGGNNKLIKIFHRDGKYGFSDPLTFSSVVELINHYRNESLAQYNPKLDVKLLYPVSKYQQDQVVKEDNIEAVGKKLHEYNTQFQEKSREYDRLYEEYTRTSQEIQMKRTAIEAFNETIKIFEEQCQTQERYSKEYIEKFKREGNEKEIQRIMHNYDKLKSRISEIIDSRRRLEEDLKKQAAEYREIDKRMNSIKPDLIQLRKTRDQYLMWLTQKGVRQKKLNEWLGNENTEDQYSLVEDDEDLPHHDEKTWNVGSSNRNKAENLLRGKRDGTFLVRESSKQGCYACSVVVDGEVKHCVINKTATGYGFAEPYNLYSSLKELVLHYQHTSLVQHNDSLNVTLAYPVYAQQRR

IC50 [µM] | SMILES
6.4 | Cc1noc2nc(Cn3cnc4c(N)ncnc43)n(-c3ccccc3)c(=O)c12 [Compound 5, 6-(6-Amino-purin-9-ylmethyl)-3-methyl-5-phenyl-5H-is oxazolo[5,4-d]pyrimidin-4-one]
0.665 | CC(c1nc2c(c(Br)nn2C)c(=O)n1-c1ccccc1)n1cnc2c(N)ncnc21 (stereo not drawn) [Compound 1, 6-[1-(6-Amino-purin-9-yl)-ethyl]-3-bromo-1-methyl-5-phenyl-1,5-dihydro-pyrazolo[3,4-d]pyrimidin-4-one]
1.2 | Cc1noc2nc(CSc3ncnc4[nH]cnc34)n(-c3ccccc3)c(=O)c12 [Compound 4, 3-Methyl-5-phenyl-6-(9H-purin-6-ylsulfanylmethyl)-5H-isoxazolo[5,4-d]pyrimidin-4-one]
0.665 | CC(c1nc2cccnc2c(=O)n1-c1ccccc1)n1cnc2c(N)ncnc21 (stereo not drawn) [Compound 11]

SMILES | IC50 [µM]
CC(Sc1ncnc2[nH]cnc12)c1nc2c(c(Br)nn2C)c(=O)n1-c1ccccc1 (stereo not drawn) [Compound 2, 3-Bromo-1-methyl-5-phenyl-6-[1-(9H-purin-6-ylsulfanyl)-ethyl]-1,5-dihydro-pyrazolo[3,4-d]pyrimidin-4-one] | 6

tested on: basophils; experiment: Basophil histamine release assay; format: cell-based; conditions: highest concentration (10,000 nM)
Procedure: Assessment of the effect of a compound of the invention on basophil function is tested using a conventional histamine release assay, generally in accordance with the method described in Miura et al., J Immunol, 162:4198-206 (1999). Briefly, enriched basophils are preincubated with test compounds at several concentrations from 0.1 nM to 1,000 nM for 10 min at 37° C. Then, polyclonal goat antihuman IgE (0.1 μg/mL) or fMLP is added, and allowed to incubate for an additional 30 min Histamine released into the supernatant is measured using an automated fluorometric technique.

SMILES | inhibition at 10 µM [%]
O=c1cc(N2CCOCC2)oc2c(-c3ccccc3)cccc12 [LY294002] | ~100
